Experimental data reported in patent US20260356817A1, “AMINOPYRIMIDINE AND AMINOTRIAZINE DERIVATIVES AS MYC PROTEIN MODULATORS” (Sanford Burnham Prebys Medical Discovery Institute, priority 2022, published 2026).
Where two headings read alike, the source gives them in different places.

System: Myc
Experiment: Myc inhibition assay: Myc expression per cell by anti-Myc immunofluorescence, high-content imaging
Format: cell-based, human (patient-derived medulloblastoma xenograft cells)
Conditions: medulloblastoma PDX cells, 4 h
Summary of the method: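 IC50 comes from high-content imaging of per-cell Myc immunostaining (DAPI-labelled nuclei) after 4 h compound exposure. Cells were freshly dissociated medulloblastoma PDX tumours, never passaged in vitro, grown in NSG mouse cerebellum, plated serum-free and recovered overnight before treatment.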

[1] = Table 1, read-out: IC50 (Myc inhibition)
[2] = Table 2, read-out: MYC Inhibition IC50

Row | Compound | IC50 [1] | IC50 [2]
1 | NCCCOc1cccc(Nc2nccc(-c3ccc4[nH]cnc4c3)n2)c1 [Compound 91, N-(3-(3-aminopropoxy)phenyl)-4-(1H-benzo[d]imidazol-5-yl)pyrimidin-2-amine] | 200 to 1000 nM | 200 to 1000 nM
2 | COc1cc(-c2ccnc(Nc3cccc(F)c3F)n2)ccn1 [Compound 206, N-(2,3-difluorophenyl)-4-(2-methoxypyridin-4-yl)pyrimidin-2-amine] | 10000 to 100000 nM | 10000 to 100000 nM
3 | Fc1cccc(Nc2nccc(-c3ccn4nccc4n3)n2)c1 [Compound 270, N-(3-fluorophenyl)-4-(pyrazolo[1,5-a]pyrimidin-5-yl)pyrimidin-2-amine] | 1000 to 10000 nM | 1000 to 10000 nM
4 | COc1cc(-c2ccnc(Nc3ccccn3)n2)ccn1 [Compound 187, 4-(2-methoxypyridin-4-yl)-N-(pyridin-2-yl)pyrimidin-2-amine] | 10000 to 100000 nM | 10000 to 100000 nM
5 | Fc1cccc(Nc2nccc(-c3cnc4[nH]ccc4c3)n2)c1 [Compound 169, N-(3-fluorophenyl)-4-(1H-pyrrolo[2,3-b]pyridin-5-yl)pyrimidin-2-amine] | 10000 to 100000 nM | 10000 to 100000 nM
6 | COc1cccc(-c2ccnc(Nc3ccccc3)c2)c1 [Compound 246, 4-(3-Methoxyphenyl)-N-phenylpyridin-2-amine] | 10000 to 100000 nM | 10000 to 100000 nM
7 | Oc1cc(-c2ccnc(Nc3cccnc3)n2)ccn1 [Compound 188, 4-(2-(pyridin-3-ylamino)pyrimidin-4-yl)pyridin-2-ol] | 1000 to 10000 nM | 1000 to 10000 nM
8 | COc1cccc(Nc2nccc(-c3ccnc(O)c3)n2)c1 [Compound 191, 4-(2-((3-methoxyphenyl)amino)pyrimidin-4-yl)pyridin-2-ol] | 1000 to 10000 nM | 1000 to 10000 nM
9 | Oc1cc(-c2ccnc(Nc3cccc(C(F)(F)F)c3)n2)ccn1 [Compound 241, 4-(2-((3-(trifluoromethyl)phenyl)amino)pyrimidin-4-yl)pyridin-2-ol] | 200 to 1000 nM | 200 to 1000 nM
10 | COc1cccc(Nc2nccc(-c3cccc(OC)c3)n2)c1 [Compound 250, N,4-bis(3-methoxyphenyl)pyrimidin-2-amine] | 1000 to 10000 nM | 1000 to 10000 nM
11 | O=C(c1cccc(Nc2nccc(-c3ccc4[nH]cnc4c3)n2)c1)N1CCOCC1 [Compound 11, (3-((4-(1H-benzo[d]imidazol-5-yl)pyrimidin-2-yl)amino)phenyl)(morpholino)methanone] | 200 to 1000 nM | 200 to 1000 nM
12 | Cc1cc(Nc2nccc(-c3ccc4[nH]cnc4c3)n2)ccc1F [Compound 48, 4-(1H-benzo[d]imidazol-5-yl)-N-(4-fluoro-3-methylphenyl)pyrimidin-2-amine] | 200 to 1000 nM | 200 to 1000 nM
13 | N#Cc1cccc(Nc2nccc(-c3ccc4[nH]cnc4c3)n2)c1 [Compound 94, 3-((4-(1H-benzo[d]imidazol-5-yl)pyrimidin-2-yl)amino)benzonitrile] | 1000 to 10000 nM | 1000 to 10000 nM
14 | Oc1ncc(-c2ccnc(Nc3cccc(F)c3)n2)s1 [Compound 181, 5-(2-((3-fluorophenyl)amino)pyrimidin-4-yl)thiazol-2-ol] | 200 to 1000 nM | 200 to 1000 nM
15 | Cc1cc(Nc2nccc(-c3cnc4nc[nH]c4c3)n2)ccc1F [Compound 135, N-(4-fluoro-3-methylphenyl)-4-(1H-imidazo[4,5-b]pyridin-6-yl)pyrimidin-2-amine] | < 200 nM | < 200 nM
16 | Oc1ccc(-c2ccnc(Nc3cccc(F)c3)n2)cn1 [Compound 213, 5-(2-((3-fluorophenyl)amino)pyrimidin-4-yl)pyridin-2-ol] | 1000 to 10000 nM | 1000 to 10000 nM
17 | COc1ccnc(-c2ccnc(Nc3ccccc3)n2)c1 [Compound 217, 4-(4-methoxypyridin-2-yl)-N-phenylpyrimidin-2-amine] | 10000 to 100000 nM | 10000 to 100000 nM
18 | NC(=O)c1cccc(Nc2nccc(-c3ccc4[nH]cnc4c3)n2)c1 [Compound 67, 3-((4-(1H-benzo[d]imidazol-5-yl)pyrimidin-2-yl)amino)benzamide] | 200 to 1000 nM | 200 to 1000 nM
19 | c1ccc2cc(Nc3nccc(-c4ccc5[nH]cnc5c4)n3)ccc2c1 [Compound 55, 4-(1H-benzo[d]imidazol-5-yl)-N-(naphthalen-2-yl)pyrimidin-2-amine] | 200 to 1000 nM | 200 to 1000 nM
20 | c1ccc(-n2cc(Nc3nccc(-c4ccc5[nH]cnc5c4)n3)cn2)cc1 [Compound 39, 4-(1H-benzo[d]imidazol-5-yl)-N-(1-phenyl-1H-pyrazol-4-yl)pyrimidin-2-amine] | < 200 nM | < 200 nM
21 | Clc1cccc(Nc2nccc(-c3cnc4nc[nH]c4c3)n2)c1 [Compound 141, N-(3-chlorophenyl)-4-(1H-imidazo[4,5-b]pyridin-6-yl)pyrimidin-2-amine] | < 200 nM | < 200 nM
22 | Oc1ccnc(-c2ccnc(Nc3ccccc3)n2)c1 [Compound 183, 2-(2-(phenylamino)pyrimidin-4-yl)pyridin-4-ol] | 1000 to 10000 nM | 1000 to 10000 nM

Row | Compound | IC50 [1] | IC50 [2]
23 | COC(=O)c1cccc(Nc2nccc(-c3ccnc(O)c3)n2)c1 [Compound 185, methyl 3-((4-(2-hydroxypyridin-4-yl)pyrimidin-2-yl)amino)benzoate] | 1000 to 10000 nM | 1000 to 10000 nM
24 | OCCOc1cccc(Nc2nccc(-c3ccnc(O)c3)n2)c1 [Compound 128, 4-(2-((3-(2-hydroxyethoxy)phenyl)amino)pyrimidin-4-yl)pyridin-2-ol] | 1000 to 10000 nM | 1000 to 10000 nM
25 | COc1cncc(-c2ccnc(Nc3cccc(F)c3)n2)c1 [Compound 203, N-(3-fluorophenyl)-4-(5-methoxypyridin-3-yl)pyrimidin-2-amine] | 200 to 1000 nM | 200 to 1000 nM
26 | Cc1nc2ccc(-c3ccnc(Nc4cccc(C(F)(F)F)c4)n3)cc2[nH]1 [Compound 142, 4-(2-Methyl-1H-benzo[d]imidazol-6-yl)-N-(3-(trifluoromethyl)phenyl)pyrimidin-2-amine] | 200 to 1000 nM | 200 to 1000 nM
27 | COc1cc(-c2ccnc(Nc3ccncc3)n2)ccn1 [Compound 197, 4-(2-methoxypyridin-4-yl)-N-(pyridin-4-yl)pyrimidin-2-amine] | 1000 to 10000 nM | 1000 to 10000 nM
28 | CNS(=O)(=O)c1cccc(Nc2nccc(-c3ccc4[nH]cnc4c3)n2)c1 [Compound 25, 3-((4-(1H-benzo[d]imidazol-5-yl)pyrimidin-2-yl)amino)-N-methylbenzenesulfonamide] | < 200 nM | < 200 nM
29 | Oc1cc(-c2ccnc(Nc3ccncc3)n2)ccn1 [Compound 190, 4-(2-(pyridin-4-ylamino)pyrimidin-4-yl)pyridin-2-ol] | 1000 to 10000 nM | 1000 to 10000 nM
30 | COc1cc(-c2ccnc(Nc3ccc(F)c(F)c3)n2)ccn1 [Compound 210, N-(3,4-difluorophenyl)-4-(2-methoxypyridin-4-yl)pyrimidin-2-amine] | 1000 to 10000 nM | 1000 to 10000 nM
31 | Fc1cccc(Nc2nccc(-c3ccc4ocnc4c3)n2)c1 [Compound 271, 4-(benzo[d]oxazol-5-yl)-N-(3-fluorophenyl)pyrimidin-2-amine] | 1000 to 10000 nM | 1000 to 10000 nM
32 | c1cc(Nc2nccc(-c3ccc4[nH]cnc4c3)n2)cc(-c2nnn[nH]2)c1 [Compound 267, N-(3-(1H-tetrazol-5-yl)phenyl)-4-(1H-benzo[d]imidazol-5-yl)pyrimidin-2-amine] | < 200 nM | < 200 nM
33 | CN(c1cccc(C(F)(F)F)c1)c1nccc(-c2ccnc(O)c2)n1 [Compound 220, 4-(2-(methyl (3-(trifluoromethyl)phenyl)amino)pyrimidin-4-yl)pyridin-2-ol] | 10000 to 100000 nM | 10000 to 100000 nM
34 | Cc1cccc(Nc2nccc(-c3ccc4[nH]cnc4c3)n2)c1 [Compound 40, 4-(1H-benzo[d]imidazol-5-yl)-N-(m-tolyl)pyrimidin-2-amine] | 200 to 1000 nM | 200 to 1000 nM
35 | COc1cccc(-c2ccnc(N(C)c3ccccc3)n2)c1 [Compound 247, 4-(3-methoxyphenyl)-N-methyl-N-phenylpyrimidin-2-amine] | 1000 to 10000 nM | 1000 to 10000 nM
36 | COc1cc(-c2ccnc(Nc3cncnc3)n2)ccn1 [Compound 179, 4-(2-methoxypyridin-4-yl)-N-(pyrimidin-5-yl)pyrimidin-2-amine] | 10000 to 100000 nM | 10000 to 100000 nM
37 | O=S(=O)(Nc1ccc(F)cc1)c1cccc(Nc2nccc(-c3ccc4[nH]cnc4c3)n2)c1 [Compound 36, 3-((4-(1H-benzo[d]imidazol-5-yl)pyrimidin-2-yl)amino)-N-(4-fluorophenyl)benzenesulfonamide] | 200 to 1000 nM | 200 to 1000 nM
38 | Cn1cnc2cc(-c3ccnc(Nc4cccc(C(F)(F)F)c4)n3)ccc21 [Compound 95, 4-(1-methyl-1H-benzo[d]imidazol-5-yl)-N-(3-(trifluoromethyl)phenyl)pyrimidin-2-amine] | < 200 nM | < 200 nM
39 | CN(c1ccccc1)c1nccc(-c2ccc(O)nc2)n1 [Compound 222, 5-(2-(methyl(phenyl)amino)pyrimidin-4-yl)pyridin-2-ol] | 10000 to 100000 nM | 10000 to 100000 nM
40 | CC(C)S(=O)(=O)c1cccc(Nc2nccc(-c3ccc4[nH]cnc4c3)n2)c1 [Compound 26, 4-(1H-benzo[d]imidazol-5-yl)-N-(3-(isopropylsulfonyl)phenyl)pyrimidin-2-amine] | < 200 nM | < 200 nM
41 | Cc1cc2nc[nH]c2cc1-c1ccnc(Nc2cccc(C(F)(F)F)c2)n1 [Compound 114, 4-(5-methyl-1H-benzo[d]imidazol-6-yl)-N-(3-(trifluoromethyl)phenyl)pyrimidin-2-amine] | 1000 to 10000 nM | 1000 to 10000 nM
42 | Oc1ccc(Oc2ccnc(Nc3cccc(F)c3)n2)cn1 [Compound 110, 5-((2-((3-fluorophenyl)amino)pyrimidin-4-yl)oxy)pyridin-2-ol] | 1000 to 10000 nM | 1000 to 10000 nM
43 | Fc1cccc(Nc2nccc(-c3ccc4[nH]nnc4c3)n2)c1 [Compound 138, 4-(1H-benzo[d][1,2,3]triazol-5-yl)-N-(3-fluorophenyl)pyrimidin-2-amine] | 1000 to 10000 nM | 1000 to 10000 nM
